{"source": "patent US9096601B2", "about": "(CSPC Zhongqi Pharmaceutical Technology (Shijiazhuang) Co., …, priority 2010, dated 2015)", "key": {"[1]": {"biological_target": "EGFR L858R mutant type (Homo sapiens (Human), UniProt P00533, L858R)", "sequence (P00533 25-1210 L858R)": "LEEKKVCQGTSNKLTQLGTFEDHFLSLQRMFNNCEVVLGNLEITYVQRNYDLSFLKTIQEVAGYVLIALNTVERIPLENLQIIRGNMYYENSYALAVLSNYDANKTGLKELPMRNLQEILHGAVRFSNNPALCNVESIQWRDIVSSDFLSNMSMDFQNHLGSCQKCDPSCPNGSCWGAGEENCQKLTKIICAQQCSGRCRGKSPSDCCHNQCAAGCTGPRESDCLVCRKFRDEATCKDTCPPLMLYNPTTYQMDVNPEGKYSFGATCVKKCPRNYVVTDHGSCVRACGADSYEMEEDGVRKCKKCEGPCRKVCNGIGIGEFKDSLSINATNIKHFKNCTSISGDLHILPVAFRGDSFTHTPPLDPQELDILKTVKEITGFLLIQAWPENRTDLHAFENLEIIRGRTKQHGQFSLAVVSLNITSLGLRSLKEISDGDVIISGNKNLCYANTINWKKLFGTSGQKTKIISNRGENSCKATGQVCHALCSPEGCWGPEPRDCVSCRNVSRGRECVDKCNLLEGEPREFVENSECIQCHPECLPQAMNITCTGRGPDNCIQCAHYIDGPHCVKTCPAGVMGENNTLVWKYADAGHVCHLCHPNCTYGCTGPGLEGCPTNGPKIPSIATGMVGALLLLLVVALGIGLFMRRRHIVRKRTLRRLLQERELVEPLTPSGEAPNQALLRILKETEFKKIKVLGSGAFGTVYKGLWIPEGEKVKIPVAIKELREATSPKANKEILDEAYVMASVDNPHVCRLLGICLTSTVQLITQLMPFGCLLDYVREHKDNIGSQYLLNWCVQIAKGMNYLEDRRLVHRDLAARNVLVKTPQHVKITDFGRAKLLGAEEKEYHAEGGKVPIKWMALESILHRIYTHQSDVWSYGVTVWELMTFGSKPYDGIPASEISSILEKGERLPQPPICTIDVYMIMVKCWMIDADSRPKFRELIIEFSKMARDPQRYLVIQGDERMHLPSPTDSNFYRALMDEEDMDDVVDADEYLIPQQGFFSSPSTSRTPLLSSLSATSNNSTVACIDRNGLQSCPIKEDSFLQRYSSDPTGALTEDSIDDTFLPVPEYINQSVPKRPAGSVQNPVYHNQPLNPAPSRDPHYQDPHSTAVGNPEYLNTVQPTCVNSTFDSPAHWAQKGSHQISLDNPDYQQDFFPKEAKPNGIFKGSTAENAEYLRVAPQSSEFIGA", "assay": "Kinase inhibitory activity, isotopic labeling (γ-33P-ATP)", "type": "biochemical", "conditions": "ATP 200 μM (Km)", "description": "(§1) The object of this assay was to test the inventive compounds for the kinase inhibitory activity in vitro. In this assay, an isotopic labeling method was used to label the γ phosphate group on ATP. […] Staurosporine was used as a reference molecule (or referred to as a positive control). […] The IC50 value can be obtained by the calculation of the inhibitory rates at a series of different concentrations of the tested compounds.\n(§2) To a reaction tube were successively added the buffer solution (8 mM MOPS, pH 7.0, 0.2 mM EDTA, 10 mM MnCl2), the kinase to be tested (5-10 mU) (EGFR/ALK/BTK/c-KIT/c-SRC/MET/PDGFRα/VEGFR2), the substrate for the kinase to be tested (a reference material), 10 mM of the solution of magnesium acetate and γ-^33 P-ATP, and different concentrations of the tested compounds. […] The reaction was terminated with […] of the 3% phosphate buffer solution. 10 μL of the reaction liquid was titrated on the Filtermat A membrane. The membrane was washed with 75 mM of the phosphate solution thrice (5 minutes each time), and then with methanol once, and finally dried. The membrane was subjected to a scintillation counting. The value of the scintillation counting reflected the phosphorylation level of the substrate and therefore could characterize the inhibition of the kinase activity."}, "[2]": {"biological_target": "EGFR L858R/T790M double mutant type (Homo sapiens (Human), UniProt P00533, L858R/T790M)", "assay": "Kinase inhibitory activity, isotopic labeling (γ-33P-ATP)", "type": "biochemical", "conditions": "ATP 45 μM (Km)", "description": "as §1, §2"}, "[3]": {"biological_target": "EGFR wild type (Homo sapiens (Human), UniProt P00533)", "sequence (P00533 25-1210)": "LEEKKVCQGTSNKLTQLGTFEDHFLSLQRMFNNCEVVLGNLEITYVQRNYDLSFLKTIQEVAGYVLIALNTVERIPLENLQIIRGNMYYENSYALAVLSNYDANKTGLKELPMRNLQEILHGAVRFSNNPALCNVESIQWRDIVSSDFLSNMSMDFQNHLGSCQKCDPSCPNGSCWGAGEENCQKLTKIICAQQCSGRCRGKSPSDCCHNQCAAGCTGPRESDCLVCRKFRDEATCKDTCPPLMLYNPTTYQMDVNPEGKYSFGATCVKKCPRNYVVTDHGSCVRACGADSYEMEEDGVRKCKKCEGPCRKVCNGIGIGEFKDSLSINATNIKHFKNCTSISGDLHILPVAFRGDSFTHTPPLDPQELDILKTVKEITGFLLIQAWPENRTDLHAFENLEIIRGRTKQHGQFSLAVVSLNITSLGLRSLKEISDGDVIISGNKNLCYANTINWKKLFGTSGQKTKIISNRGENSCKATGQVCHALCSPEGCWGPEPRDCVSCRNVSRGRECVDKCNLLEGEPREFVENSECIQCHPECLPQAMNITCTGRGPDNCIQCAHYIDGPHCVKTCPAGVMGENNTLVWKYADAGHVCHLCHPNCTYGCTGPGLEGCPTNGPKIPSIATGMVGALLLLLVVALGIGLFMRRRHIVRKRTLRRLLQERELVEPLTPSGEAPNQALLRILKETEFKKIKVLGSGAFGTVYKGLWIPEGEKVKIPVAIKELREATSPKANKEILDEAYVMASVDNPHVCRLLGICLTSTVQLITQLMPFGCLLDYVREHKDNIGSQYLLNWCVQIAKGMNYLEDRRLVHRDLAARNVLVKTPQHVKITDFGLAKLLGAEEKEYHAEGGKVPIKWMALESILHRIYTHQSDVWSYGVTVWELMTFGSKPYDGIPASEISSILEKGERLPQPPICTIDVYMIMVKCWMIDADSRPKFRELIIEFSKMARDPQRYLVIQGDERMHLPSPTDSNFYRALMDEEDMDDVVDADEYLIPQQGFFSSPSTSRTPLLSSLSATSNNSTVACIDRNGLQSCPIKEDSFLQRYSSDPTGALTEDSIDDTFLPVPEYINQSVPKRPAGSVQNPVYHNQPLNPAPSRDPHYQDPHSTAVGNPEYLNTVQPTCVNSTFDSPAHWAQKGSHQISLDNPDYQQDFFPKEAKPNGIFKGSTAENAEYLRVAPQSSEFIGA", "assay": "Kinase inhibitory activity, isotopic labeling (γ-33P-ATP)", "type": "biochemical", "conditions": "ATP 10 μM (Km)", "description": "as §1, §2"}, "[4]": {"biological_target": "ALK (Homo sapiens (Human), UniProt Q9UM73)", "assay": "Kinase inhibitory activity, isotopic labeling (γ-33P-ATP)", "type": "biochemical", "conditions": "compound at 10 μM"}, "[5]": {"biological_target": "BTK (Homo sapiens (Human), UniProt Q06187)", "assay": "Kinase inhibitory activity, isotopic labeling (γ-33P-ATP)", "type": "biochemical", "conditions": "compound at 10 μM"}, "[6]": {"biological_target": "FLT3 (Homo sapiens (Human), UniProt P36888)", "assay": "Kinase inhibitory activity, isotopic labeling (γ-33P-ATP)", "type": "biochemical", "conditions": "compound at 10 μM"}, "[7]": {"biological_target": "MET (Homo sapiens (Human), UniProt P08581)", "assay": "Kinase inhibitory activity, isotopic labeling (γ-33P-ATP)", "type": "biochemical", "conditions": "compound at 10 μM"}, "[8]": {"biological_target": "PDGFRα (Homo sapiens (Human), UniProt P16234)", "assay": "Kinase inhibitory activity, isotopic labeling (γ-33P-ATP)", "type": "biochemical", "conditions": "compound at 10 μM"}, "[9]": {"biological_target": "VEGFR2 (Homo sapiens (Human), UniProt P35968)", "sequence (P35968 20-1356)": "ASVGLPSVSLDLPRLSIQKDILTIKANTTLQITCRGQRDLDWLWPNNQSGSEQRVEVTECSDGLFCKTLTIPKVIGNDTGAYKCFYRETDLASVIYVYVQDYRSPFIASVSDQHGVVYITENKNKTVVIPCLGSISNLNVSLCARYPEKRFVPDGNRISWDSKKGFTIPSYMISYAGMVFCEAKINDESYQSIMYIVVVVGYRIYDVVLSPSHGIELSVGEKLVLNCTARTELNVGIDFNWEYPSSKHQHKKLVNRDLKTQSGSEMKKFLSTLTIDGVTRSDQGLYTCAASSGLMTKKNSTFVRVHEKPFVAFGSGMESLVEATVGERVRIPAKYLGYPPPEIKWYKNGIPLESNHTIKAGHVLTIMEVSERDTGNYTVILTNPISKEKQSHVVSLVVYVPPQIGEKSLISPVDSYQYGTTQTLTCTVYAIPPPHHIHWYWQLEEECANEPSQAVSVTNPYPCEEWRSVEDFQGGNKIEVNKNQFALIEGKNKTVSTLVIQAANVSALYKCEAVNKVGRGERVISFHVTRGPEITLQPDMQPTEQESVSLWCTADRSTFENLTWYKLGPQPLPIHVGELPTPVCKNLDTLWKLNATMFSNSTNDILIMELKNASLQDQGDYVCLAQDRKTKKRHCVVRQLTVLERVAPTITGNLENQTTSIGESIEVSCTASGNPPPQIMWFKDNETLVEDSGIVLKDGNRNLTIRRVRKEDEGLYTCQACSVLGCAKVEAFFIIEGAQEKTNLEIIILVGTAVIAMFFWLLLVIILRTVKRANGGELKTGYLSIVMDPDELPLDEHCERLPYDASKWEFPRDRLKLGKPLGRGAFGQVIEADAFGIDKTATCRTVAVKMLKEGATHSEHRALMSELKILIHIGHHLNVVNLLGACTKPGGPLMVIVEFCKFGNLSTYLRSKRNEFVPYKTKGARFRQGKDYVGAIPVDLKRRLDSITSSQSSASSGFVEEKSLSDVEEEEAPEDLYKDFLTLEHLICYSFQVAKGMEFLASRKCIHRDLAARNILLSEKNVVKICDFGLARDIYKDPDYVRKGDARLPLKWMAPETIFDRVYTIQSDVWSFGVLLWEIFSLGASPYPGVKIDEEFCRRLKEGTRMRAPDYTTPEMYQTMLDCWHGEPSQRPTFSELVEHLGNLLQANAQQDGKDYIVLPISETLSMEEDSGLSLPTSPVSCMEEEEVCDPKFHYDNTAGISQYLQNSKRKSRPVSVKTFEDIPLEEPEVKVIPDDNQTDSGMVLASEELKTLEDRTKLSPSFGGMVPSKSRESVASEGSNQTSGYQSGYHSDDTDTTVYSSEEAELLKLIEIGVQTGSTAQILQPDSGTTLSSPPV", "assay": "Kinase inhibitory activity, isotopic labeling (γ-33P-ATP)", "type": "biochemical", "conditions": "ATP 90 μM (Km)", "outline": "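Buffer (8 mM MOPS, pH 7.0, 0.2 mM EDTA, 10 mM MnCl2), 5-10 mU kinase, substrate, 10 mM magnesium acetate with γ-33P-ATP, then compound at several concentrations were combined. After termination with 3% phosphate, filter-bound radioactivity was counted to give substrate phosphorylation and IC50.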"}, "[10]": {"biological_target": "c-KIT (Homo sapiens (Human), UniProt P10721)", "sequence (P10721 26-976)": "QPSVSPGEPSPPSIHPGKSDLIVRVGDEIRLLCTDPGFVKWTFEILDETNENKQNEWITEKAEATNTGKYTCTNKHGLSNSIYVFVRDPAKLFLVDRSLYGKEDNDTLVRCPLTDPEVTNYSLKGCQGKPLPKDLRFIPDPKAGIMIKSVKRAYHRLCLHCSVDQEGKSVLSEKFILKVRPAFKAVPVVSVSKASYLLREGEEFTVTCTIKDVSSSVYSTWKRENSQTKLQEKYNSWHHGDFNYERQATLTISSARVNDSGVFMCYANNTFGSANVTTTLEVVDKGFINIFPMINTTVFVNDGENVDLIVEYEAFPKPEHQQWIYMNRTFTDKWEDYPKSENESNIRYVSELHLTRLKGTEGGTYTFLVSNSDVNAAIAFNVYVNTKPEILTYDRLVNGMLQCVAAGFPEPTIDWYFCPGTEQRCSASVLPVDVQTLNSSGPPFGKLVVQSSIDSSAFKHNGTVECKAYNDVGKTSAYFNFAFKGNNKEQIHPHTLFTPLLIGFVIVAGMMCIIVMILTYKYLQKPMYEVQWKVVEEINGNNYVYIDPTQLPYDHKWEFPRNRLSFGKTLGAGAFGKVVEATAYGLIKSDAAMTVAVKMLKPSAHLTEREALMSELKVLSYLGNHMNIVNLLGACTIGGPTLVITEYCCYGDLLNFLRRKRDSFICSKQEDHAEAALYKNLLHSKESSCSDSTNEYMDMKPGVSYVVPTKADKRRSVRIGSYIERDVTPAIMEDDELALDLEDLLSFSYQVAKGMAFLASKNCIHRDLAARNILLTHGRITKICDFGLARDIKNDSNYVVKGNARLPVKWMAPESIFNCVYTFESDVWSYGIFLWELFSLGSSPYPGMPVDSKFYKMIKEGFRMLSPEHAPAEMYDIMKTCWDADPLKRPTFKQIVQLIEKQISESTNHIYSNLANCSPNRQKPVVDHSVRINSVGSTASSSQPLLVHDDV", "assay": "Kinase inhibitory activity, isotopic labeling (γ-33P-ATP)", "type": "biochemical", "conditions": "compound at 10 μM"}, "[11]": {"biological_target": "c-SRC (Homo sapiens (Human), UniProt P12931)", "assay": "Kinase inhibitory activity, isotopic labeling (γ-33P-ATP)", "type": "biochemical", "conditions": "compound at 10 μM"}, "[12]": {"test_system": "non-small cell lung carcinoma cell strain H1975 (EGFR L858R/T790M mutation)", "assay": "In-vitro tumor cell proliferation inhibition, MTT", "type": "cell-based, human", "conditions": "72 hours"}, "[13]": {"test_system": "non-small cell lung carcinoma cell strain H292 (EGFR WT)", "assay": "In-vitro tumor cell proliferation inhibition, MTT", "type": "cell-based, human", "conditions": "72 hours"}, "[14]": {"test_system": "non-small cell lung carcinoma cell strain HCC827", "assay": "In-vitro tumor cell proliferation inhibition, MTT", "type": "cell-based, human", "conditions": "72 hours", "outline": "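Cells grown in RPMI-1640 with 10% FBS, seeded overnight (HCC827 at 6×10^4 cells/ml), then exposed to graded compound concentrations for 72 h at 37 °C, 5% CO2, with 1% DMSO solvent control. MTT absorbance at 570 nm; inhibition relative to control; triplicate wells, ≥3 repeats.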"}, "[15]": {"test_system": "non-small cell lung carcinoma cell strain PC-9 (EGFR delE746-A750 deletion mutation)", "assay": "In-vitro tumor cell proliferation inhibition, MTT", "type": "cell-based, human", "conditions": "72 hours"}}}
{"compound": "CC(C)n1c(NC2CCCCC2)nc2cnc(Nc3ccc(N4CCN(C)CC4)cc3)nc21", "note": "[Compounds 8-30]", "values": [{"measurement": "IC50", "setting": "[1]", "result": 0.005, "unit": "µM"}, {"measurement": "IC50", "setting": "[2]", "result": 0.228, "unit": "µM"}, {"measurement": "IC50", "setting": "[3]", "result": 0.015, "unit": "µM"}, {"measurement": "The kinase activity inhibitory rate (%) by the tested compounds at 10 μM ALK", "setting": "[4]", "result": 8, "unit": "%"}, {"measurement": "The kinase activity inhibitory rate (%) by the tested compounds at 10 μM BTK", "setting": "[5]", "result": 25, "unit": "%"}, {"measurement": "The kinase activity inhibitory rate (%) by the tested compounds at 10 μM FLT3", "setting": "[6]", "result": 43, "unit": "%"}, {"measurement": "The kinase activity inhibitory rate (%) by the tested compounds at 10 μM MET", "setting": "[7]", "result": 0, "unit": "%"}, {"measurement": "The kinase activity inhibitory rate (%) by the tested compounds at 10 μM PDGFRα", "setting": "[8]", "result": 21, "unit": "%"}, {"measurement": "IC50", "setting": "[9]", "result": "> 1000", "unit": "nM"}, {"measurement": "The kinase activity inhibitory rate (%) by the tested compounds at 10 μM c-KIT", "setting": "[10]", "result": 0, "unit": "%"}, {"measurement": "The kinase activity inhibitory rate (%) by the tested compounds at 10 μM c-SRC", "setting": "[11]", "result": 67, "unit": "%"}, {"measurement": "IC50", "setting": "[12]", "result": "> 10000", "unit": "nM"}, {"measurement": "IC50", "setting": "[13]", "result": 201, "unit": "nM"}, {"measurement": "IC50", "setting": "[14]", "result": 483, "unit": "nM"}, {"measurement": "IC50", "setting": "[15]", "result": 55.1, "unit": "nM"}]}
{"compound": "C=CC(=O)Nc1cccc(Nc2ncc3nc(Nc4ccccc4)n(C(C)C)c3n2)c1", "note": "[Compounds 8-38]", "values": [{"measurement": "IC50", "setting": "[1]", "result": 0.0006, "unit": "µM"}, {"measurement": "IC50", "setting": "[2]", "result": 0.037, "unit": "µM"}, {"measurement": "IC50", "setting": "[3]", "result": 0.002, "unit": "µM"}, {"measurement": "The kinase activity inhibitory rate (%) by the tested compounds at 10 μM ALK", "setting": "[4]", "result": 22, "unit": "%"}, {"measurement": "The kinase activity inhibitory rate (%) by the tested compounds at 10 μM BTK", "setting": "[5]", "result": 93, "unit": "%"}, {"measurement": "The kinase activity inhibitory rate (%) by the tested compounds at 10 μM FLT3", "setting": "[6]", "result": 86, "unit": "%"}, {"measurement": "The kinase activity inhibitory rate (%) by the tested compounds at 10 μM MET", "setting": "[7]", "result": 74, "unit": "%"}, {"measurement": "The kinase activity inhibitory rate (%) by the tested compounds at 10 μM PDGFRα", "setting": "[8]", "result": 55, "unit": "%"}, {"measurement": "IC50", "setting": "[9]", "result": "> 1000", "unit": "nM"}, {"measurement": "The kinase activity inhibitory rate (%) by the tested compounds at 10 μM c-KIT", "setting": "[10]", "result": 63, "unit": "%"}, {"measurement": "The kinase activity inhibitory rate (%) by the tested compounds at 10 μM c-SRC", "setting": "[11]", "result": 93, "unit": "%"}, {"measurement": "IC50", "setting": "[12]", "result": 644, "unit": "nM"}, {"measurement": "IC50", "setting": "[13]", "result": 7.3, "unit": "nM"}, {"measurement": "IC50", "setting": "[14]", "result": 0.5, "unit": "nM"}, {"measurement": "IC50", "setting": "[15]", "result": 0.7, "unit": "nM"}]}
